The source made the active and inactive calls.
How the values were obtained:
Estrogen receptor = molecular target: T1, Estrogen receptor (Homo sapiens, UniProt P03372);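 note: potency for inhibiting coactivator peptide recruitment to the receptor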
T1 sequence (P03372 whole entry): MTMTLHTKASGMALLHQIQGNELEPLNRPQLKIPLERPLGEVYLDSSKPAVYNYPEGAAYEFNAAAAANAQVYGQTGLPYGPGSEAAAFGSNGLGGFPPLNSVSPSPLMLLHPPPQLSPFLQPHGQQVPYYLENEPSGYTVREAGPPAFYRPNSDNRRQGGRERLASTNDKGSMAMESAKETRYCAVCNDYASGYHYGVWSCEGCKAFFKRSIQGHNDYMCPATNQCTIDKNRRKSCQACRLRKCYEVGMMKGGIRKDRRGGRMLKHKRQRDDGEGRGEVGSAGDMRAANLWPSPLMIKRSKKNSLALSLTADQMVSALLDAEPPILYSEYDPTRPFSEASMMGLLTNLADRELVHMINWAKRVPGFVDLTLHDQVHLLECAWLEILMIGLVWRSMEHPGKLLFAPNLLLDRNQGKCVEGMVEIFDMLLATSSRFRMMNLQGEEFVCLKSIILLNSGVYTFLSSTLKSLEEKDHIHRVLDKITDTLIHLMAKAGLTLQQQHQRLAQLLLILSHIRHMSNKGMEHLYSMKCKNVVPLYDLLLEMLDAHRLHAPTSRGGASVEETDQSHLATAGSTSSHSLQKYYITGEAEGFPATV

Estrogen receptor beta [1] = molecular target: T2, Estrogen receptor beta (Homo sapiens, UniProt Q92731);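 note: recombinant ER-beta bound to coactivator SRC1 peptide in presence of estradiol agonist; inhibitors block coactivator peptide binding and lower the FRET signal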
Estrogen receptor beta [2] = molecular target: T2, Estrogen receptor beta; assay: ERβ–SRC-3 coactivator interaction inhibitors, confirmation, orthogonal assay, biochemical, ELISA, streptavidin-HRP readout (AID 1060)
[3] = molecular target: T3, Carboxy-terminal domain RNA polymerase II polypeptide A small phosphatase 1 (Homo sapiens, UniProt Q9GZU7); assay: inhibitors of CTDSP1, concentration-response testing, biochemical assay, absorbance-based, actives from ultra-high-throughput screening (AID 540297); assay type: functional
T3 sequence (Q9GZU7 whole entry): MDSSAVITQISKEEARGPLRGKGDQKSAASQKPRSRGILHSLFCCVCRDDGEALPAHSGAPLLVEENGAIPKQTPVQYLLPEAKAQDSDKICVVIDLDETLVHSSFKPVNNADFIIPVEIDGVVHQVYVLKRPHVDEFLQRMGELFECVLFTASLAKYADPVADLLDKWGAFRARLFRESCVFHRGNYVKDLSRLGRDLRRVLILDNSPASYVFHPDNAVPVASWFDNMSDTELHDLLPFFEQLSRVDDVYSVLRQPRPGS

Protein Tat = molecular target: T4, Protein Tat (Human immunodeficiency virus type 1 group M subtype B (isolate HXB2)(HIV-1), UniProt P04608); assay type: functional;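 note: tat binding to TAR RNA read out by fluorescence polarization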
T4 sequence (P04608 whole entry): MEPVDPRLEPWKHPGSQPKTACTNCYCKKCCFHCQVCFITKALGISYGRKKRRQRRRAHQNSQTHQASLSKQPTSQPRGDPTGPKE

[4] = P. falciparum Dd2 growth inhibitors, dose response, SYBR Green, cherry-picked samples (AID 1159567); assay type: functional, cell-based
[5] = HepG2 cell cytotoxicity, dose response, cytotoxicity control, cherry-picked samples (AID 1159577); assay type: functional, cell-based
[6] = molecular target: T5, Acyl-homoserine lactone acylase PvdQ (Pseudomonas aeruginosa (strain LESB58), UniProt Q9I194); assay: P. aeruginosa PvdQ acylase inhibitors, dose response, biochemical, fluorescence, plate reader and imaging, cherry-picks (AID 493231)
T5 sequence (Q9I194 whole entry): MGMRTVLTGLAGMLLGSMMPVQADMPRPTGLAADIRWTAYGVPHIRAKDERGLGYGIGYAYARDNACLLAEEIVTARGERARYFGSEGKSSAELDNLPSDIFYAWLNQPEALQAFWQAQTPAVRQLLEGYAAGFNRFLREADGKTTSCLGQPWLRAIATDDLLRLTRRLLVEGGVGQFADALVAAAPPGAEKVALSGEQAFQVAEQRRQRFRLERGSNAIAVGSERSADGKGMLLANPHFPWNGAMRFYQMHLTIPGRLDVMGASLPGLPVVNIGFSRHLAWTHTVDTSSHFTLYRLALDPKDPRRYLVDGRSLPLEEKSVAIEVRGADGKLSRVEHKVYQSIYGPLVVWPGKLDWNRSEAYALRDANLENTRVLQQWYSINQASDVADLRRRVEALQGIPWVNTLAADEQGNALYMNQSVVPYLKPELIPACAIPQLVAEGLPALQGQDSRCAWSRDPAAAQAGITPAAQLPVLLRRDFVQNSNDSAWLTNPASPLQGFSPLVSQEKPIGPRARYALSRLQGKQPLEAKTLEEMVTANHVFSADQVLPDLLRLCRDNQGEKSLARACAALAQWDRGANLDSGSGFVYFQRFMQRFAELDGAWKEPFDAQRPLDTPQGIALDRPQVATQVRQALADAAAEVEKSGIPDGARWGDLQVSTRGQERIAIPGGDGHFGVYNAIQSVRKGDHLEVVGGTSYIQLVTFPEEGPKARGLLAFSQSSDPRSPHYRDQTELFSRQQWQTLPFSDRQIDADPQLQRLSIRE

[7] = HEK293T cytotoxicity, dose response, cytotoxicity control for miR-122 modulator project, cell-based, activator set, cherry-pick (AID 720690); assay type: functional;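 note: HEK293T human cells scored for general mammalian cytotoxicity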
[8] = inhibitors of HIV Env-driven cell fusion, dose response, cherry-pick (AID 652057); assay type: functional, cell-based
[9] = CEM21 lymphoblast cell cytotoxicity, dose response, cytotoxicity control for viral fusion inhibitor project, CellTiter-Glo luminescence, cherry-picked (AID 652042); assay type: functional, cell-based;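 note: potency for signal decrease meaning cytotoxicity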
[10] = ZM109 Env clade C HIV-1 fusion inhibitors, dose response, HeLa effector, CEM target cells, luciferase, cherry-pick (AID 652058); assay type: functional, cell-based
[11] = off-target signal loss in HeLa-CEM21 co-culture – HeLa F-luc CTL cells, cherry-picked, counter-screen for HIV-1 Env fusion inhibitor project, dose response (AID 652040); assay type: functional, cell-based;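 note: potency for signal decrease marking cytotoxic or nonspecific inhibition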
[12] = inhibitors of clade B AD8 Env fusion, dose response, cell-based, cherry-pick (AID 652062); assay type: functional;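 note: luciferase signal from cell-cell fusion driven by HIV-1 clade B AD8 Env; potency is for inhibitors of fusion seen as a drop in luminescence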
[13] = molecular target: T6, Calpain-2 catalytic subunit (Sus scrofa, UniProt P43367); assay: pig calpain II inhibitor potency, dose response, biochemical, fluorogenic peptide substrate (AID 1420); assay type: functional
T6 sequence (P43367 whole entry): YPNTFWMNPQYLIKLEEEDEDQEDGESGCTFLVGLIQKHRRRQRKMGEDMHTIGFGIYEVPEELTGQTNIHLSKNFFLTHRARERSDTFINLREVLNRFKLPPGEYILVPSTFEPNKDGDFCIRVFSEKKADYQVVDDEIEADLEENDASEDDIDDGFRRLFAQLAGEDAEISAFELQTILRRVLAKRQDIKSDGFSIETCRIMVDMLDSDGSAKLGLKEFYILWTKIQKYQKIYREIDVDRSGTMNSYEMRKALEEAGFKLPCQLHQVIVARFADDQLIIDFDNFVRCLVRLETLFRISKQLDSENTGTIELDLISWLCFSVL

[14] = HEK293T cytotoxicity, dose response, cytotoxicity control for miR-122 modulator project, cell-based, inhibitor set, cherry-pick, set 2 (AID 720697); assay type: functional
[15] = Luminescence-based counterscreen assay for KLF5 inhibitors: dose response cell-based high throughput screening assay to identify cytotoxic compounds using the IEC-6 intestinal epithelial cell line. [Related pubchem assays: 1700 (Primary screen.), 1834 (Confirmation screen.), 1858 (Summary AID.), 1905 (Counterscreen.)]; assay type: functional
INS1 = assay: beta cell apoptosis inhibitors, cytokine rescue, dose response, luminescence, retest (AID 449756); assay type: functional, cell-based; settings: Rattus norvegicus;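 note: cell death triggered by IL-1 beta plus TNF-alpha plus IFN-gamma mixture; protective hits raise ATP signal compared with cytokine alone wells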

T2 sequence (Q92731 whole entry): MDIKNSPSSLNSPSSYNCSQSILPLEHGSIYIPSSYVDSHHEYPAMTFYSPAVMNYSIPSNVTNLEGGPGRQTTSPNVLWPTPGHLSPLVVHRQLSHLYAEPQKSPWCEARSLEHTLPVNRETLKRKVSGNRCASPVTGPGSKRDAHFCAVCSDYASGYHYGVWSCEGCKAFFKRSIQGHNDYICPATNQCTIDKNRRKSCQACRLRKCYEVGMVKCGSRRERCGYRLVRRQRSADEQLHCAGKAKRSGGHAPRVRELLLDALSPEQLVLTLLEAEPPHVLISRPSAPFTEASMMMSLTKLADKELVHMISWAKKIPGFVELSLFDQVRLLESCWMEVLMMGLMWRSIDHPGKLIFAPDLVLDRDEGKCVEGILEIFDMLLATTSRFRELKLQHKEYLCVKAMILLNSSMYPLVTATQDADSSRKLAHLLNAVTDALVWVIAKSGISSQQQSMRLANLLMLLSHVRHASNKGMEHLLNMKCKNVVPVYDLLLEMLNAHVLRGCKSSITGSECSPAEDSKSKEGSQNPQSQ

With `CCOC(=O)C1=C(O)/C(=C\c2ccc(CNC(=O)C(=O)Nc3ccccc3)o2)N=C1C` as the molecule, how does the IC50 (Estrogen receptor) read?
Its IC50 is 5.73 µM (active).

And the IC50 (Estrogen receptor beta [1])?
The IC50 was < 1.56 µM (active).

What about the IC50 (Estrogen receptor beta [2]) of the same molecule?
Its IC50 is 1.95 µM (not active).

What about the IC50 [3] of the same molecule?
The IC50 was 8.55 µM (active).

And the IC50 (Protein Tat)?
The IC50 was 5.9 µM (inconclusive).

With `O=C(C[C@H]1C[C@H]2c3cc(NS(=O)(=O)c4ccc(F)cc4)ccc3O[C@H]2[C@H](CO)O1)NCc1ccc(Cl)cc1` as the molecule, how does the AC50 [4] read?
Its AC50 is 6.82 µM (active).

And the AC50 [5]?
Its AC50 is > 39 µM (inactive).

Which AC50 [6] does the source give for `COC(=O)c1ccc(OC(=O)c2cccs2)cc1` here?
Its AC50 is 7.15 µM (active).

For `CCCCN1C(=O)NC(=O)C2(Cc3ccccc3N3CCOCC32)C1=O` (stereo not drawn), which IC50 (Protein Tat) is on record?
Its IC50 is > 100 µM (active).

With `COc1ccc(N2CCN(C(=O)c3ccc(Br)o3)CC2)cc1` as the molecule, how does the AC50 [6] read?
The AC50 was 7.33 µM (active).

For `O=S(=O)(NCc1csc(-c2cccnc2)n1)c1ccc(Cl)s1`, which IC50 (Estrogen receptor) is on record?
Its IC50 is 13.6 µM (active).

What about the IC50 (Estrogen receptor beta [1]) of the same molecule?
The IC50 was 11.8 µM (active).

And the IC50 (Estrogen receptor beta [2])?
The IC50 was 99.4 µM (not active).

For `CC(=O)NC(C)C(=O)OCC(=O)Nc1ccc(Br)cc1` (stereo not drawn), which IC50 (Estrogen receptor) is on record?
Its IC50 is > 50 µM (not active).

For `Cn1cccc1C(C#N)c1ccccc1C#N` (stereo not drawn), which AC50 [6] is on record?
Its AC50 is 7.71 µM (active).

With `CC(C)CC#Cc1ccc([C@H]2[C@@H](CO)N3CCCCN(S(=O)(=O)Cc4ccccc4)C[C@H]23)cc1` as the molecule, how does the AC50 [7] read?
Its AC50 is 15 µM (active).

And the AC50 [4]?
Its AC50 is 5.43 µM (active).

And the AC50 [5]?
The AC50 was 8.87 µM (active).

With `CC[C@@]12C(=O)N(c3cccc(Cl)c3)C(=O)N1[C@H](c1ccc(Br)cc1)[C@@H]1C(=O)N(C(C)(C)C)C(=O)[C@@H]12` as the molecule, how does the AC50 [8] read?
The AC50 was < 0.26 µM (active).

And the AC50 [9]?
Its AC50 is 65.5 µM (active).

What about the AC50 [10] of the same molecule?
Its AC50 is < 0.26 µM (active).

What about the AC50 [11] of the same molecule?
Its AC50 is < 0.26 µM (active).

And the AC50 [12]?
Its AC50 is 0.342 µM (active).

For `CC(=N)/C(C#N)=C(/O)CSc1nnc(COc2ccccc2Cl)o1`, which IC50 (Estrogen receptor) is on record?
Its IC50 is 37.2 µM (not active).

And the IC50 (Estrogen receptor beta [1])?
Its IC50 is 8.99 µM (active).

And the IC50 (Estrogen receptor beta [2])?
The IC50 was 5.64 µM (not active).

And the IC50 [13]?
Its IC50 is < 0.4 µM (not active).

For `CN(C[C@H]1N[C@@H](CO)[C@H]1c1ccc(-c2ccccc2)cc1)C(=O)C1CCC1`, which AC50 [14] is on record?
Its AC50 is 10.2 µM (active).

Which AC50 [6] does the source give for `CCC(=O)c1ccc(OC(=O)c2cccs2)cc1` here?
Its AC50 is > 100 µM (inactive).

What does the source list for `O=C(Nc1cccnc1)c1cccs1`?
IC50 [15]: 38.4 µM (not active); IC50 [13]: > 50 µM (not active); AC50 (INS1): 6.6 µM (active)

Which IC50 [15] does the source give for `CN(C)c1ccc(/C=N/Nc2cccc(C(=O)O)c2)cc1` here?
Its IC50 is > 39.8 µM (not active).
